According to patent publication US7544694B2, “Substituted diaza-spiro-[5.5]-undecane derivatives and their use as neurokinin antagonists” (Janssen Pharmaceutica N.V., priority 2004, dated 2009):

Experiments:
Format in all cases: cell-based
NK1 = NK1 (Homo sapiens, UniProt P25103); assay: Signal transduction (ST), intracellular Ca++ (FLIPR), functional NK1 antagonistic activity; details: antagonist, read-out: NK1 pIC50 (converted)
In short: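 Confluent cells were loaded with 2 μM Fluo3 for 1 h at 37° C, then washed into Krebs buffer pH 7.4 with 1.25 mM CaCl2 and 2.5 mM probenecid. Antagonists were preincubated 20 min at RT before agonist addition. Peak Ca++ transients were read by FLIPR, with EC50 or IC50 from sigmoidal non-linear regression.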

NK2 = biological target: T1, NK2 (Homo sapiens, UniProt P21452); assay: Signal transduction (ST), intracellular Ca++ (FLIPR), NK2; details: antagonist, read-out: NK2 pIC50 (converted)
T1 sequence (P21452 1-398): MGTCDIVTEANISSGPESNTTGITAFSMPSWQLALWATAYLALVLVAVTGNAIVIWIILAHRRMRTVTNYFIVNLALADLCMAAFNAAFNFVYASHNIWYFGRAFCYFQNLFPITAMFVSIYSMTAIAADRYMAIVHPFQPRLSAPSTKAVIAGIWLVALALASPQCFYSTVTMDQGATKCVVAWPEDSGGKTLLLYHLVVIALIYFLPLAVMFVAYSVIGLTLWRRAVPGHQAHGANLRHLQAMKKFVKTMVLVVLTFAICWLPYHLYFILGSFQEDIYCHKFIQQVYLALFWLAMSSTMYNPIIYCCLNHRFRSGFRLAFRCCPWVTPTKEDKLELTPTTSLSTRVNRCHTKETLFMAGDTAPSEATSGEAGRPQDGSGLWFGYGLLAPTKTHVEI

NK3 = biological target: T2, NK3 (Homo sapiens, UniProt P29371); assay: Signal transduction (ST), intracellular Ca++ (FLIPR), NK3; details: antagonist, read-out: NK3 pIC50 (converted)
T2 sequence (P29371 1-465): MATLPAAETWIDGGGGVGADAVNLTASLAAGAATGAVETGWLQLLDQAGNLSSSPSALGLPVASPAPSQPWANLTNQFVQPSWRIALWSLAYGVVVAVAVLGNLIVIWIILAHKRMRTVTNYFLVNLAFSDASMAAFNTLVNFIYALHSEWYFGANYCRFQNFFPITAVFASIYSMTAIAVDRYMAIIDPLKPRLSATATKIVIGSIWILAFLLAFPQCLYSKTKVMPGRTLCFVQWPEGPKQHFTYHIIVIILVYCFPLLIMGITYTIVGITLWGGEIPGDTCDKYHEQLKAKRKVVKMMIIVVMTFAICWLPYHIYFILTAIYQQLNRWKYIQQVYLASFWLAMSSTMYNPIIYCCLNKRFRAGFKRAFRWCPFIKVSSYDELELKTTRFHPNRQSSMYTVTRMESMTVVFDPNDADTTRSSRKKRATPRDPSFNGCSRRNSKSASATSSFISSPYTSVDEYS

Chain of NK1 (P25103 whole entry): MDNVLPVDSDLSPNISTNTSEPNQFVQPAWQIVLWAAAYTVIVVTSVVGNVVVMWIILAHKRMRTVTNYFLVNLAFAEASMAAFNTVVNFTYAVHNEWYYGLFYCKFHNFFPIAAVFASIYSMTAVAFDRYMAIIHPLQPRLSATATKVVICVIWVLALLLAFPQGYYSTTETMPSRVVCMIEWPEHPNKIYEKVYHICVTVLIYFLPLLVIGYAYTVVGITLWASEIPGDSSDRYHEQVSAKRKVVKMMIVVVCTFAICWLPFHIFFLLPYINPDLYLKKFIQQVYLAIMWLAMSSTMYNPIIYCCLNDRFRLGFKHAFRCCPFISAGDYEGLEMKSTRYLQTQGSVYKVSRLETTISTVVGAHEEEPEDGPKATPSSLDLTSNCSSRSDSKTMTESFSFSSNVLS

Row | Structure (SMILES) | IC50 (NK1) [nM] | IC50 (NK2) [nM] | IC50 (NK3) [nM]
1 | O=C(c1cc(C(F)(F)F)cc(C(F)(F)F)c1)N1CC[C@H](N2CCC3(CC2)CCN(S(=O)(=O)c2ccc(F)cc2)CC3)C[C@H]1Cc1ccccc1 [Compound 116] | 52.5 | > 10000 | 708
2 | O=C(c1cc(C(F)(F)F)cc(C(F)(F)F)c1)N1CC[C@H](N2CCC3(CC2)CCN(S(=O)(=O)c2ccc(C(F)(F)F)cc2)CC3)C[C@H]1Cc1ccccc1 [Compound 117] | 447 | > 10000 | > 10000
3 | N#Cc1ccc(S(=O)(=O)N2CCC3(CCN(C4CCN(C(=O)c5cc(C(F)(F)F)cc(C(F)(F)F)c5)C(Cc5ccccc5)C4)CC3)CC2)cc1 (stereo not drawn) [Compound 119] | 66.1 | 1070 | 1580
4 | COc1ccc(S(=O)(=O)N2CCC3(CCN([C@H]4CCN(C(=O)c5cc(C(F)(F)F)cc(C(F)(F)F)c5)[C@H](Cc5ccccc5)C4)CC3)CC2)cc1 [Compound 121] | 112 | 1200 | 3720
5 | COc1ccc(S(=O)(=O)N2CCC3(CCN([C@H]4CCN(C(=O)c5cc(C(F)(F)F)cc(C(F)(F)F)c5)[C@H](Cc5ccccc5)C4)CC3)CC2)cc1OC [Compound 122] | 44.7 | 3980 | > 10000
6 | COc1ccc(OC)c(S(=O)(=O)N2CCC3(CCN([C@H]4CCN(C(=O)c5cc(C(F)(F)F)cc(C(F)(F)F)c5)[C@H](Cc5ccccc5)C4)CC3)CC2)c1 [Compound 123] | 70.8 | ~4070 | > 10000
7 | CC(=O)Nc1ccc(S(=O)(=O)N2CCC3(CCN([C@H]4CCN(C(=O)c5cc(C(F)(F)F)cc(C(F)(F)F)c5)[C@H](Cc5ccccc5)C4)CC3)CC2)cc1 [Compound 124] | 23.4 | ~2570 | 1780
8 | CS(=O)(=O)c1ccccc1S(=O)(=O)N1CCC2(CCN([C@H]3CCN(C(=O)c4cc(C(F)(F)F)cc(C(F)(F)F)c4)[C@H](Cc4ccccc4)C3)CC2)CC1 [Compound 125] | 158 | 5130 | 6920
9 | O=C(c1cc(C(F)(F)F)cc(C(F)(F)F)c1)N1CC[C@H](N2CCC3(CC2)CCN(S(=O)(=O)Cc2ccccc2)CC3)C[C@H]1Cc1ccccc1 [Compound 126] | 33.1 | 3390 | 3980
10 | O=C(c1cc(C(F)(F)F)cc(C(F)(F)F)c1)N1CC[C@H](N2CCC3(CC2)CCN(S(=O)(=O)Cc2cccc(Cl)c2)CC3)C[C@H]1Cc1ccccc1 [Compound 127] | 263 | 4680 | > 10000
11 | O=C(c1cc(C(F)(F)F)cc(C(F)(F)F)c1)N1CC[C@H](N2CCC3(CC2)CCN(S(=O)(=O)C=Cc2ccccc2)CC3)C[C@H]1Cc1ccccc1 [Compound 128] | 562 | 5370 | > 10000
12 | O=C(C1CC1)N1CCC2(CC1)CCN([C@H]1CCN(C(=O)c3cc(C(F)(F)F)cc(C(F)(F)F)c3)[C@H](Cc3ccc(Cl)c(Cl)c3)C1)CC2 [Compound 131] | 17.4 | 776 | 1410
13 | O=C(C1CCOC1)N1CCC2(CC1)CCN([C@H]1CCN(C(=O)c3cc(C(F)(F)F)cc(C(F)(F)F)c3)[C@H](Cc3ccc(Cl)c(Cl)c3)C1)CC2 (stereo partly drawn) [Compound 132] | 9.55 | 1700 | 912
14 | O=C(c1ccsc1)N1CCC2(CC1)CCN([C@H]1CCN(C(=O)c3cc(C(F)(F)F)cc(C(F)(F)F)c3)[C@H](Cc3ccc(Cl)c(Cl)c3)C1)CC2 [Compound 133] | 53.7 | 3720 | 4900
15 | O=C(C1CC1)N1CCC2(CC1)CCN([C@H]1CCN(C(=O)c3cc(C(F)(F)F)cc(C(F)(F)F)c3)[C@H](Cc3ccc(F)c(F)c3)C1)CC2 [Compound 136] | 17 | 2000 | 692
16 | O=C(C1CCOC1)N1CCC2(CC1)CCN([C@H]1CCN(C(=O)c3cc(C(F)(F)F)cc(C(F)(F)F)c3)[C@H](Cc3ccc(F)c(F)c3)C1)CC2 (stereo partly drawn) [Compound 137] | 27.5 | 3470 | 1700
17 | CC1(C)OC(=O)CC1C(=O)N1CCC2(CC1)CCN([C@H]1CCN(C(=O)c3cc(C(F)(F)F)cc(C(F)(F)F)c3)[C@H](Cc3ccc(F)c(F)c3)C1)CC2 (stereo partly drawn) [Compound 138] | 17.8 | 4680 | > 10000

Row | Structure (SMILES) | IC50 (NK1) [nM] | IC50 (NK2) [nM] | IC50 (NK3) [nM]
18 | O=C1CCC(C(=O)N2CCC3(CC2)CCN([C@H]2CCN(C(=O)c4cc(C(F)(F)F)cc(C(F)(F)F)c4)[C@H](Cc4ccc(F)c(F)c4)C2)CC3)N1 (stereo partly drawn) [Compound 139] | 38.9 | 2400 | 955
19 | O=C(c1ccoc1)N1CCC2(CC1)CCN([C@H]1CCN(C(=O)c3cc(C(F)(F)F)cc(C(F)(F)F)c3)[C@H](Cc3ccc(F)c(F)c3)C1)CC2 [Compound 140] | 23.4 | 3470 | 2450
20 | O=C(c1ccsc1)N1CCC2(CC1)CCN([C@H]1CCN(C(=O)c3cc(C(F)(F)F)cc(C(F)(F)F)c3)[C@H](Cc3ccc(F)c(F)c3)C1)CC2 [Compound 141] | 41.7 | 5890 | 7080
21 | CC(C)S(=O)(=O)N1CCC2(CCN([C@H]3CCN(C(=O)c4cc(C(F)(F)F)cc(C(F)(F)F)c4)[C@H](Cc4ccccc4)C3)CC2)CC1 [Compound 167] | 56.2 | 2040 | 1950
22 | O=C(C1CC1)N1CCCC2(CCN([C@H]3CCN(C(=O)c4cc(C(F)(F)F)cc(C(F)(F)F)c4)[C@H](Cc4ccccc4)C3)CC2)C1 [Compound 172] | 93.3 | 6920 | 5750
23 | O=C(C1CC1)N1CCCC2(CCN([C@@H]3CCN(C(=O)c4cc(C(F)(F)F)cc(C(F)(F)F)c4)[C@H](Cc4ccccc4)C3)CC2)C1 [Compound 173] | 30.9 | ~1620 | > 10000
24 | O=C(C1CCOC1)N1CCCC2(CCN([C@H]3CCN(C(=O)c4cc(C(F)(F)F)cc(C(F)(F)F)c4)[C@H](Cc4ccccc4)C3)CC2)C1 (stereo partly drawn) [Compound 174] | 40.7 | 6920 | > 10000
25 | O=C(c1ccsc1)N1CCCC2(CCN([C@H]3CCN(C(=O)c4cc(C(F)(F)F)cc(C(F)(F)F)c4)[C@H](Cc4ccccc4)C3)CC2)C1 [Compound 175] | 15.5 | 4470 | > 10000
26 | O=C(c1ccco1)N1CCCC2(CCN([C@H]3CCN(C(=O)c4cc(C(F)(F)F)cc(C(F)(F)F)c4)[C@H](Cc4ccccc4)C3)CC2)C1 [Compound 176] | 72.4 | ~6460 | > 10000
27 | O=C(c1cc(C(F)(F)F)cc(C(F)(F)F)c1)N1CC[C@H](CN2CCC3(CCN(Cc4ccccc4)CC3)CC2)C[C@H]1Cc1ccccc1 [Compound 178] | 437 | 4900 | > 10000
28 | O=C(C1CC1)N1CCC2(CCN(C[C@H]3CCN(C(=O)c4cc(C(F)(F)F)cc(C(F)(F)F)c4)[C@H](Cc4ccccc4)C3)CC2)CC1 [Compound 179] | 58.9 | > 10000 | > 10000
29 | O=C(C1CCOC1)N1CCC2(CCN(C[C@H]3CCN(C(=O)c4cc(C(F)(F)F)cc(C(F)(F)F)c4)[C@H](Cc4ccccc4)C3)CC2)CC1 (stereo partly drawn) [Compound 180] | 14.8 | 8320 | > 10000
30 | CC(C)(C)OC(=O)N1CCCC1C(=O)N1CCC2(CCN(C[C@H]3CCN(C(=O)c4cc(C(F)(F)F)cc(C(F)(F)F)c4)[C@H](Cc4ccccc4)C3)CC2)CC1 (stereo partly drawn) [Compound 181] | 33.9 | 7080 | > 10000
31 | O=C(c1ccsc1)N1CCC2(CCN(C[C@H]3CCN(C(=O)c4cc(C(F)(F)F)cc(C(F)(F)F)c4)[C@H](Cc4ccccc4)C3)CC2)CC1 [Compound 182] | 38 | > 10000 | 9120
32 | Cc1nnsc1C(=O)N1CCC2(CCN(C[C@H]3CCN(C(=O)c4cc(C(F)(F)F)cc(C(F)(F)F)c4)[C@H](Cc4ccccc4)C3)CC2)CC1 [Compound 183] | 17 | 7760 | 7410
33 | O=C(C1CCN(C(=O)c2cc(C(F)(F)F)cc(C(F)(F)F)c2)C(Cc2ccccc2)C1)N1CCC2(CCN(Cc3ccccc3)CC2)CC1 (stereo not drawn) [Compound 185] | 81.3 | 5500 | > 10000
34 | O=C(C1CC1)N1CCC2(CC1)CCN(C(=O)[C@H]1CCN(C(=O)c3cc(C(F)(F)F)cc(C(F)(F)F)c3)[C@H](Cc3ccccc3)C1)CC2 [Compound 186] | 17 | 5010 | 5370
